Measurements reported in patent US8044100B2, “Methods and compositions for treating amyloid-related diseases” (Bellus Health Inc., priority 2004, dated 2011).

Legend:
[1] = target: T1, NAC peptide (Homo sapiens, UniProt P37840); experiment: Binding to NAC peptide by electrospray mass spectrometry; conditions: 5:1 ratio compound:NAC (100 μM:20 μM or 200 μM:40 μM), pH 7.4; bound complex peak area / unbound NAC peak area
T1 construct: NAC is a 35 amino acid long peptide with highly hydrophobic stretches
Protocol: The ability of the compounds of the present invention to bind to NAC peptide in aqueous solution was evaluated. The binding ability correlates to the intensities of the peptide-compound complex peaks observed by the Electrospray Mass Spectrum. Millipore distilled deionized water was used to prepare all aqueous solutions. For pH determination a Beckman Φ36 pH meter fitted with a Corning Semi-Micro Combination pH Electrode was employed.
The optimal cone voltage was determined to be 20V.
Mass spectrometry—Mass spectrometric analysis was performed using a Waters ZQ 4000 mass spectrometer equipped with a Waters 2795 sample manager. MassLynx 4.0 (earlier by MassLynx 3.5) was used for data processing and analysis. Test compounds were mixed with disaggregated peptides in aqueous media (6.6% EtOH) at a 5:1 ratio (20 μM NAC:100 μM of test compound or 40 μM NAC:200 μM of test compound). The pH of the mixture was adjusted to 7.4 (+0.2) using 0.1% NaOH (3-5 μL). Periodically, NAC peptide solution at 20 μM or 40 μM was also prepared in the same fashion and run as control. The spectra were obtained by introducing the solutions to the electrospray source by direct infusion using a syringe pump at a flow rate of 25 μl/min, and scanning from 100 to 2100 Da in the positive mode. The scan time was 0.9 sec per scan with an inter-scan delay of 0.1 sec and the run time was 5 min for each sample. All the mass spectra were sum of 300 scans. The desolvation and source temperature was 70° C. and the cone and capillary voltage were maintained at 20 V and 3.2 kV respectively.
The total area under the peaks for the bound NAC-compound complex divided by total area under the peaks for unbound NAC was determined for each compound tested.

[2] = system: Aβ peptides (Aβ40, Aβ42) in the plasma and brain of TgCRND8 mice; experiment: Long term treatment (8 or 16 weeks) in TgCRND8 mice: Aβ levels in plasma and brain; format: in vivo, mouse; conditions: BX subcutaneous, BW and BZ oral
Protocol: The long-term therapeutic effects of compounds of the present invention on cerebral amyloid deposition and β-amyloid (Aβ) levels in the plasma and in the brains of transgenic mice, TgCRND8, expressing the human amyloid precursor protein (hAPP) was studied. These compounds were administered over an 8 or 16 week period at the end of which the levels of Aβ peptides in the plasma and brain of TgCRND8 animals were determined. The goal of this study was to evaluate the efficacy of the compounds at modulating the progression of the amyloidogenic process in the brain and in the plasma of a transgenic mouse model of Alzheimer's disease (AD)
The mice used in the study consisted of animals bearing one copy of the hAPP gene (+/−) from the 2nd and 3rd generation progenies (N2 and N3) derived from backcrosses from TgCRND8.FVB(N2)AJ(N3) with B6AF1/J hybrid animals. • N1=TgCRND8.FVB(N2)AJ(N3)×B6AF1/J • N2=TgCRND8.FVB(N2)AJ(N3).B6AF1/J(N1)×B6AF1/J • N3=TgCRND8.FVB(N2)AJ(N3).B6AF1/J(N2)×B6AF1/J
The following abbreviations are used to designate these animals in the present study: TgCRND8.B6AF1/J(N2); TgCRND8.B6AF1/J(N3). Male and female transgenic mice were given daily subcutaneous (compound BX) or oral (compounds BW and BZ) administrations of the appropriate compounds for 8 or 16 weeks.
Baseline animals consisted of 9±1 week old naive TgCRND8.B6AF1/J animals from the 2nd and 3rd generations. These mice were used to determine the extent of cerebral amyloid deposits and Aβ levels in the plasma and brain of naive transgenic animals at the initiation of treatment.
Starting at 9 weeks of age (+1 week) animals received daily administration of their respective treatment for a period of 8 or 16 weeks, at a dose of 30 or 100 mg/kg at 10 ml/kg. The route of administration was subcutaneous for water-soluble compounds (Compound BX) and oral for compounds solubilized in methylcellulose 1% (MC 1%) (Compounds BW and BZ). At the end of the treatment periods, plasma and perfused brains were collected for quantification of Aβ levels.
Animal health was monitored, samples were collected and Aβ levels were measured as described above in the short term treatment study. Compounds were scored based on their ability to modulate levels of Aβ peptides in the plasma and the cerebral soluble/insoluble levels in the brain. Levels of Aβ observed in the plasma and brain of treated animals were compared to that of vehicle-treated (water) or methylcellulose-treated control groups and ranked according to the strength of the pharmacological effect. Increases in the levels of Aβ peptides are indicated using “+” symbols, while decreases in the levels of Aβ peptides are indicated using “−” symbols. The strongest effects are recorded as “+++” or “−−−” while the weakest are shown as “+” or “−”.
Specifically, increases in the levels of Aβ (relative to vehicle treated control) of 5 to 14% are scored as “+”; increases of 15 to 29% are scored as “++”; and increases of 30% or higher are scored as “+++”. Decreases in the levels of Aβ of 5 to 14% are scored as “−”; decreases of 15 to 29% are scored as “−−”; and decreases of 30% or more are scored as “−−−”. Additionally, changes of 4% or less in either direction are scored as “0”.

[3] = system: Aβ peptides (Aβ40, Aβ42) in the plasma and brain of TgCRND8 mice; experiment: Short term treatment (14 or 28 days) in TgCRND8 mice: Aβ levels in plasma and brain by ELISA; format: in vivo, mouse;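 as to Aβ40 Change Insoluble: symbols grade percent change in Aβ versus untreated control with plus for increase and minus for decrease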;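 as to Aβ40 Change Soluble: symbols grade percent change in Aβ versus untreated control with plus for increase and minus for decrease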;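 as to Aβ42 Change Insoluble: symbols grade percent change in Aβ versus untreated control with plus for increase and minus for decrease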
Protocol: The short term therapeutic effect of 19 compounds of the invention was studied. These compounds were administered over a 14 or 28 day period at the end of which the levels of Aβ peptides in the plasma and brain of TgCRND8 animals were determined.
Male and female transgenic mice from the 3rd and 4th B6C3F1 generations were used in this example and given daily subcutaneous or oral administrations of one of a series of compounds for 14 or 28 days. The following abbreviations are used to designate these animals from the 3rd and 4th generation backcross in the present protocol: TgCRND8-2.B6C3F1(N3); TgCRND8-2.B6C3F1 (N4).
Baseline animals (Group 1) consisted of naive TgCRND8-2. B6C3F1(N3) at 11±1 weeks of age. These mice were used to determine the Aβ levels in the plasma and brain of naive transgenic animals at the initiation of treatment.
Starting at 11 weeks of age (±1 week) animals received daily administration of their respective treatment for a period of 14 or 28 days (groups 2-21), at a dose of 250 mg/kg at 10 ml/kg or of vehicle only (water; group 2) or 1% methyl cellulose only (group 21). The route of administration was subcutaneous for water-soluble compounds and oral for compounds solubilized in methylcellulose 1%. (MC 1%). At the end of the treatment periods, plasma and perfused brains were collected for quantification of Aβ levels.
At 11±1 weeks of age for the Baseline group, and at the end of the treatment period (14 or 28 days) for Groups 2 to 21, at 24 hours after the last compound administration animals were sacrificed and samples collected. An approximate blood volume of 500 μl was collected from the orbital sinus and kept on ice until centrifugation at 4° C. at a minimum speed of 3,000 rpm for 10 minutes. Plasma samples were immediately frozen and stored at −80° C. pending analysis. The brains were removed, frozen, and stored at −80° C. awaiting analysis.
Brains were weighted frozen and homogenized with 4 volumes of ice cold 50 mM Tris-Cl pH 8.0 buffer with protease inhibitor cocktail (4 mL of buffer for 1 g of wet brain). Samples were spun at 15000 g for 20 minutes and the supernatants were transferred to fresh tubes. One hundred fifty (150) μl from each supernatant were mixed with 250 μl of 8M guanidine-HCL/50 mM Tris-HCL pH 8.0 (ratio of 0.6 vol supernatant:1 vol 8M guanidium/Tris-HCL 50 mM pH8.0) and 400 μL 5 M guanidium/Tris-HCL 50 mM pH8.0 were added. The tubes were vortexed for 30 seconds and frozen at −80° C. In parallel, pellets were treated with 7 volumes of 5 M guanidine-HCL/50 mM Tris-HCL pH 8.0 (7 mL of guanidine for 1 g of wet brain), vortexed for 30 seconds and frozen at −80° C. Samples were thawed at room temperature, sonicated at 80° C. for 15 minutes and frozen again. This cycle was repeated 3 times to ensure homogeneity and samples were returned to −80° C. pending analysis.
Aβ levels were evaluated in plasma and brain samples by ELISA using Human Aβ40 and Aβ42 Fluorometric ELISA kits from Biosource (Cat. No. 89-344 and 89-348) according to manufacturer's recommended procedures. In short, samples were thawed at room temperature, sonicated for 5 minutes at 80° C. (sonication for brain homogenates; no sonication for plasma samples) and kept on ice. Aβ peptides were captured using 100 μl of the diluted samples to the plate and incubated without shaking at 4° C. overnight. The samples were aspirated and the wells were rinsed 4 times with wash buffer obtained from the Biosource ELISA kit. The anti-Aβ40 or anti-Aβ42 rabbit polyclonal antiserum (specific for the Aβ40 or Aβ42 peptide) was added (100 μl) and the plate was incubated at room temperature for 2 hours with shaking. The wells were aspirated and washed 4 times before adding 100 μl of the alkaline phosphatase labeled anti-rabbit antibody and incubating at room temperature for 2 hours with shaking. The plates were then rinsed 5 times and the fluorescent substrate (100 μl) was added to the plate. […]

[4] = brain homogenate, Day 14, methylcellulose group, daily oral
[5] = brain homogenate, Day 28, methylcellulose group, daily oral
[6] = plasma, Day 28, methylcellulose group, daily oral

NCCCCS(=O)(=O)O
Binding Strength [1]: + (Weak; when the total binding is between 70% and 30%)

O=S(=O)(O)CCCNC1C2CC3CC(C2)CC1C3 (centres unmarked) [BZ]
Brain Abeta40 insoluble ([2]; 30 mg/kg daily, 8 wks): −− (decreases of 15 to 29%) | Brain Abeta40 soluble ([2]; 30 mg/kg daily, 8 wks): 0 (changes of 4% or less in either direction) | Brain Abeta42 insoluble ([2]; 30 mg/kg daily, 8 wks): −−− (decreases of 30% or more) | Brain Abeta42 soluble ([2]; 30 mg/kg daily, 8 wks): 0 (changes of 4% or less in either direction) | Plasma Abeta40 ([2]; 30 mg/kg daily, 8 wks): 0 (changes of 4% or less in either direction) | Plasma Abeta42 ([2]; 30 mg/kg daily, 8 wks): 0 (changes of 4% or less in either direction) | Brain Abeta40 insoluble ([2]; 30 mg/kg daily, 16 wks): + (increases in the levels of Aβ (relative to vehicle treated control) of 5 to 14%) | Brain Abeta40 soluble ([2]; 30 mg/kg daily, 16 wks): 0 (changes of 4% or less in either direction) | Brain Abeta42 insoluble ([2]; 30 mg/kg daily, 16 wks): 0 (changes of 4% or less in either direction) | Brain Abeta42 soluble ([2]; 30 mg/kg daily, 16 wks): + (increases in the levels of Aβ (relative to vehicle treated control) of 5 to 14%) | Plasma Abeta40 ([2]; 30 mg/kg daily, 16 wks): 0 (changes of 4% or less in either direction) | Plasma Abeta42 ([2]; 30 mg/kg daily, 16 wks): + (increases in the levels of Aβ (relative to vehicle treated control) of 5 to 14%) | Brain Abeta40 insoluble ([2]; 100 mg/kg daily, 8 wks): 0 (changes of 4% or less in either direction) | Brain Abeta40 soluble ([2]; 100 mg/kg daily, 8 wks): ++ (increases of 15 to 29%) | Brain Abeta42 insoluble ([2]; 100 mg/kg daily, 8 wks): − (Decreases in the levels of Aβ of 5 to 14%) | Brain Abeta42 soluble ([2]; 100 mg/kg daily, 8 wks): 0 (changes of 4% or less in either direction) | Plasma Abeta40 ([2]; 100 mg/kg daily, 8 wks): ++ (increases of 15 to 29%) | Plasma Abeta42 ([2]; 100 mg/kg daily, 8 wks): +++ (increases of 30% or higher) | Brain Abeta40 insoluble ([2]; 100 mg/kg daily, 16 wks): 0 (changes of 4% or less in either direction) | Brain Abeta40 soluble ([2]; 100 mg/kg daily, 16 wks): −− (decreases of 15 to 29%) | Brain Abeta42 insoluble ([2]; 100 mg/kg daily, 16 wks): + (increases in the levels of Aβ (relative to vehicle treated control) of 5 to 14%) | Brain Abeta42 soluble ([2]; 100 mg/kg daily, 16 wks): − (Decreases in the levels of Aβ of 5 to 14%) | Plasma Abeta40 ([2]; 100 mg/kg daily, 16 wks): ++ (increases of 15 to 29%) | Plasma Abeta42 ([2]; 100 mg/kg daily, 16 wks): ++ (increases of 15 to 29%) | Aβ40 Change Insoluble [3, 4]: −−− (decreases of 39% or more) | Aβ42 Change Insoluble [3, 4]: −− (decreases of 20 to 38%) | Aβ40 Change Insoluble [3, 5]: −− (decreases of 20 to 38%) | Aβ40 Change Soluble [3, 5]: −− (decreases of 20 to 38%) | Aβ42 Change Insoluble [3, 5]: −− (decreases of 20 to 38%) | Aβ40 Change ([3]; plasma, Day 14, methylcellulose group, 250 mg/kg daily oral): + (increases in the levels of Aβ (relative to untreated control) of 20 to 39%) | Aβ40 Change [3, 6]: ++ (increases of 40 to 69%) | Aβ42 Change [3, 6]: ++ (increases of 40 to 69%)

NCCCOS(=O)(=O)[O-].[Na+] [H2NCH2CH2CH2OSO3Na]
Binding Strength [1]: ++ (Moderate; when the total binding is between 120% and 70%)

NCCS(=O)(=O)O [H2NCH2CH2SO3H]
Binding Strength [1]: + (Weak; when the total binding is between 70% and 30%)

NCCOS(=O)(=O)O [NH2CH2CH2OSO3H]
Binding Strength [1]: − (None; when the total binding is between 30% and 0%)

O=S(=O)([O-])CCCCS(=O)(=O)[O-].[Na+].[Na+] [NaO3SCH2(CH2)2CH2SO3Na]
Binding Strength [1]: − (None; when the total binding is between 30% and 0%)

O=S(=O)([O-])OCCCOS(=O)(=O)[O-].[Na+].[Na+] [NaO3SOCH2CH2CH2OSO3Na]
Binding Strength [1]: − (None; when the total binding is between 30% and 0%)

CC(C)(C)NCCCS(=O)(=O)O [drawing 748]
Binding Strength [1]: ++ (Moderate; when the total binding is between 120% and 70%)

O=S(=O)(O)CCCNC1C2CC3CC(C2)CC1C3 (centres unmarked) [drawing 749]
Binding Strength [1]: ++ (Moderate; when the total binding is between 120% and 70%)

O=S(=O)(O)CC(O)CNC1CCCCC1 (centres unmarked) [drawing 751]
Binding Strength [1]: +++ (Strong; when the total binding is 120% and higher)
